Laboratory results from patent US20260138978A1, “POSITIVE ALLOSTERIC MODULATORS OF THE MUSCARINIC ACETYLCHOLINE RECEPTOR M1” (Vanderbilt University, priority 2022, published 2026).

Columns and labels:
human mAChRM1 [1] = target: T1, human mAChRM1 (Homo sapiens, UniProt P11229); assay: mAChR M1 cell-based functional assay (calcium mobilization), positive allosteric modulator activity: increase in the EC20 acetylcholine response; settings: for Emax: PAM mode; for EC50: read-out: PAM Activity Human M1 EC50
T1 construct: host or cells: CHO-K1
T1 sequence (P11229 1-460): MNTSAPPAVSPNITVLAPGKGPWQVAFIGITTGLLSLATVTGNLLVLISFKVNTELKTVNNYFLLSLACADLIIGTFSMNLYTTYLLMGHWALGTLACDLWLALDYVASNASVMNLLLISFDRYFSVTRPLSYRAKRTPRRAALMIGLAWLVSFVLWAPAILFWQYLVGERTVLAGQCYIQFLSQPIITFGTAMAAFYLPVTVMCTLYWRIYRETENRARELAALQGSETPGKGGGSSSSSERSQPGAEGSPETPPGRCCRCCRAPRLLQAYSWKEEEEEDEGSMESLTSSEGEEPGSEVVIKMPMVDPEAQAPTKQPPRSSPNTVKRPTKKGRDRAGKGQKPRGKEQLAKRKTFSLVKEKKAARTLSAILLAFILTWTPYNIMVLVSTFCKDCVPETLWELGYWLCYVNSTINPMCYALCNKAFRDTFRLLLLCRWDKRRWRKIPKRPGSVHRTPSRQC
In short: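 CHO-K1 cells stably expressing human M1, loaded with Fluo-4 AM; calcium flux recorded on FDSS at 1 Hz over 300 s following compound addition. PAM activity is the concentration-dependent increase of an EC20 acetylcholine response; EC50 and Emax from four-parameter logistic fits of 11-point, 1:3 concentration series.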

human mAChRM1 [2] = target: T1, human mAChRM1; assay: mAChR M1 cell-based functional assay (calcium mobilization), agonist activity upon compound addition, Emax relative to acetylcholine maximum; settings: for Agonist Activity Human M1 EC50 / EC50: calcium mobilization upon compound addition; for Emax: relative to the maximum for acetylcholine
In short: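 CHO-K1 cells stably expressing human M1 were loaded with Fluo-4 AM for 50 min at 37 °C. Compound was added 4 s into a 300 s FDSS read at 1 Hz, over 11-point 1:3 dilution curves. Agonism was taken as a concentration-dependent rise in calcium fluorescence ratio, with Emax expressed relative to the acetylcholine maximum from four-parameter logistic fits.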

[3] = increase in the EC20 acetylcholine response

Row | Compound | Emax (human mAChRM1 [1]) | EC50 (human mAChRM1 [1]; [3]) | Agonist Activity Human M1 EC50 (human mAChRM1 [2]) | EC50 (human mAChRM1 [2]) | Emax (human mAChRM1 [2]) | PAM Activity Human M1 EC50 (human mAChRM1 [1]; [3])
1 | CC(C)(O)c1cc(-c2cc(F)c(CN3Cc4ncccc4C3=O)c(F)c2)c2[nH]nnc2c1 [Compound 83, 6-(2,6-difluoro-4-(5-(2-hydroxypropan-2-yl)-1H-benzo[d][1,2,3]triazol-7-yl)benzyl)-6,7-dihydro-5H-pyrrolo[3,4-b]pyridin-5-one] | 39% | ≥ 10000 nM | inactive | – | – | –
2 | Cn1cc2cc(-c3cc(F)c(CN4Cc5ncccc5C4=O)c(Cl)c3)cc(C(C)(C)O)c2n1 [Compound 41, 6-(2-chloro-6-fluoro-4-(7-(2-hydroxypropan-2-yl)-2-methyl-2H-indazol-5-yl)benzyl)-6,7-dihydro-5H-pyrrolo[3,4-b]pyridin-5-one] | 67% | 422 nM | – | ≥ 10000 nM | 12% | –
3 | [2H]C1([2H])c2ncccc2C(=O)N1Cc1c(F)cc(-c2ccc(C(C)(C)O)c3nn(C)cc23)cc1N1CCC1 [Compound 151, 6-(2-(azetidin-1-yl)-6-fluoro-4-(7-(2-hydroxypropan-2-yl)-2-methyl-2H-indazol-4-yl)benzyl)-6,7-dihydro-5H-pyrrolo[3,4-b]pyridin-5-one-7,7-d2] | 85% | 1270 nM | inactive | – | – | –
4 | [2H]C1([2H])c2ncccc2C(=O)N1Cc1ccc(-c2ccc(C(C)(C)O)c3nn(C)cc23)c(F)c1F [Compound 149, 6-(2,3-Difluoro-4-(7-(2-hydroxypropan-2-yl)-2-methyl-2H-indazol-4-yl)benzyl)-6,7-dihydro-5H-pyrrolo[3,4-b]pyridin-5-one-7,7-d2] | 88% | 623 nM | inactive | – | – | –
5 | Cn1cc2c(-c3cc(Cl)c(CN4Cc5cccnc5C4=O)c(C4CC4)c3)ccc(C(C)(C)O)c2n1 [Compound 134, 6-(2-chloro-6-cyclopropyl-4-(7-(2-hydroxypropan-2-yl)-2-methyl-2H-indazol-4-yl)benzyl)-5,6-dihydro-7H-pyrrolo[3,4-b]pyridin-7-one] | 76% | 1310 nM | – | 9050 nM | 60% | –
6 | Cc1cnc2c(c1)C(=O)N(Cc1c(F)cc(-c3ccc(C(C)(C)O)c4nn(C)cc34)cc1F)C2 [Compound 174, 6-(2,6-difluoro-4-(7-(2-hydroxypropan-2-yl)-2-methyl-2H-indazol-4-yl)benzyl)-3-methyl-6,7-dihydro-5H-pyrrolo[3,4-b]pyridin-5-one] | 80% | 531 nM | – | ≥ 10000 nM | 17% | –
7 | Cn1cc2c(-c3ccc(CN4Cc5ncccc5C4=O)c(F)c3)cc(C(C)(C)O)cc2n1 [Compound 26, 6-(2-fluoro-4-(6-(2-hydroxypropan-2-yl)-2-methyl-2H-indazol-4-yl)benzyl)-6,7-dihydro-5H-pyrrolo[3,4-b]pyridin-5-one] | 83% | 1280 nM | inactive | – | – | –
8 | Cn1cc(-c2cc(F)c(CN3Cc4ncccc4C3=O)c(F)c2)c(C(C)(C)O)n1 [Compound 28, 6-(2,6-difluoro-4-(3-(2-hydroxypropan-2-yl)-1-methyl-1H-pyrazol-4-yl)benzyl)-6,7-dihydro-5H-pyrrolo[3,4-b]pyridin-5-one] | 55% | ≥ 10000 nM | inactive | – | – | –
9 | Cc1nc2c(-c3cc(F)c(CN4Cc5ncccc5C4=O)c(F)c3)ccc(C(C)(C)O)n2n1 [Compound 115, 6-(2,6-difluoro-4-(5-(2-hydroxypropan-2-yl)-2-methyl-[1,2,4]triazolo[1,5-a]pyridin-8-yl)benzyl)-6,7-dihydro-5H-pyrrolo[3,4-b]pyridin-5-one] | 89% | 531 nM | – | 8000 nM | 29% | –

Now from value to compound:

Row | Emax (human mAChRM1 [1]) | EC50 (human mAChRM1 [1]; [3]) | Agonist Activity Human M1 EC50 (human mAChRM1 [2]) | EC50 (human mAChRM1 [2]) | Emax (human mAChRM1 [2]) | PAM Activity Human M1 EC50 (human mAChRM1 [1]; [3]) | Compound
10 | 80% | ≥ 10000 nM | inactive | – | – | – | CC(C)(O)c1ccc(-c2cc(F)c(CN3Cc4ncccc4C3=O)c(F)c2)cn1 [Compound 6, 6-(2,6-difluoro-4-(6-(2-hydroxypropan-2-yl)pyridin-3-yl)benzyl)-6,7-dihydro-5H-pyrrolo[3,4-b]pyridin-5-one]
11 | 48% | ≥ 10000 nM | inactive | – | – | – | Cn1cc(-c2ccc(CN3Cc4ncccc4C3=O)cc2)c(C(C)(C)O)n1 [Compound 32, 6-(4-(3-(2-hydroxypropan-2-yl)-1-methyl-1H-pyrazol-4-yl)benzyl)-6,7-dihydro-5H-pyrrolo[3,4-b]pyridin-5-one]
12 | 65% | 135 nM | – | ≥ 10000 nM | 28% | – | Cc1cc(-c2ccc(C(C)(C)O)c3nn(C)cc23)cc(Cl)c1CN1Cc2ncccc2C1=O [Compound 65, 6-(2-chloro-4-(7-(2-hydroxypropan-2-yl)-2-methyl-2H-indazol-4-yl)-6-methylbenzyl)-6,7-dihydro-5H-pyrrolo[3,4-b]pyridin-5-one]
13 | 75% | 358 nM | inactive | – | – | – | Cn1cc2cc(-c3cc(F)c(CN4Cc5cccc(F)c5C4=O)c(F)c3)cc(C(C)(C)O)c2n1 [Compound 155, 2-(2,6-difluoro-4-(7-(2-hydroxypropan-2-yl)-2-methyl-2H-indazol-5-yl)benzyl)-7-fluoroisoindolin-1-one]
14 | 45% | ≥ 10000 nM | inactive | – | – | – | CC(C)(O)c1cc(-c2ccc(CN3Cc4ncccc4C3=O)c(F)c2)c2[nH]nnc2c1 [Compound 75, 6-(2-fluoro-4-(5-(2-hydroxypropan-2-yl)-1H-benzo[d][1,2,3]triazol-7-yl)benzyl)-6,7-dihydro-5H-pyrrolo[3,4-b]pyridin-5-one]
15 | 79% | 364 nM | – | 6720 nM | 23% | – | [2H]C1([2H])c2ncccc2C(=O)N1Cc1c(Cl)cc(-c2ccc(C(C)(C)O)c3nn(C)cc23)cc1C1CC1 [Compound 150, 6-(2-chloro-6-cyclopropyl-4-(7-(2-hydroxypropan-2-yl)-2-methyl-2H-indazol-4-yl)benzyl)-6,7-dihydro-5H-pyrrolo[3,4-b]pyridin-5-one-7,7-d2]
16 | 81% | 118 nM | inactive | – | – | – | Cn1cc2c(-c3cc(F)c(CN4Cc5cccc(F)c5C4=O)c(F)c3)ccc(C3(O)COC3)c2n1 [Compound 159, 2-(2,6-difluoro-4-(7-(3-hydroxyoxetan-3-yl)-2-methyl-2H-indazol-4-yl)benzyl)-7-fluoroisoindolin-1-one]
17 | 64% | ≥ 10000 nM | inactive | – | – | – | CC(C)(O)c1ccc(-c2cc(F)c(CN3Cc4ncccc4C3=O)c(F)c2)c2ccccc12 [Compound 71, 6-(2,6-difluoro-4-(4-(2-hydroxypropan-2-yl)naphthalen-1-yl)benzyl)-6,7-dihydro-5H-pyrrolo[3,4-b]pyridin-5-one]
18 | 80% | 361 nM | inactive | – | – | – | Cn1cc2c(-c3cc(F)c(CN4Cc5cccc(F)c5C4=O)c(Cl)c3)ccc(C(C)(C)O)c2n1 [Compound 165, 2-(2-chloro-6-fluoro-4-(7-(2-hydroxypropan-2-yl)-2-methyl-2H-indazol-4-yl)benzyl)-7-fluoroisoindolin-1-one]
19 | 83% | 76 nM | – | 1870 nM | 22% | – | [2H]C([2H])([2H])C(O)(c1ccc(-c2cc(F)c(CN3Cc4ncccc4C3=O)c(F)c2)c2cn(C)nc12)C([2H])([2H])[2H] [Compound 93, 6-(2,6-difluoro-4-(7-(2-hydroxypropan-2-yl-1,1,1,3,3,3-d6)-2-methyl-2H-indazol-4-yl)benzyl)-6,7-dihydro-5H-pyrrolo[3,4-b]pyridin-5-one]
20 | 71% | 1210 nM | inactive | – | – | – | Cn1cc2c(-c3ccc(CN4Cc5cccc(F)c5C4=O)c(F)c3F)ccc(C(C)(C)O)c2n1 [Compound 164, 2-(2,3-difluoro-4-(7-(2-hydroxypropan-2-yl)-2-methyl-2H-indazol-4-yl)benzyl)-7-fluoroisoindolin-1-one]
21 | 75% | 414 nM | inactive | – | – | – | Cn1cc2c(-c3cc(F)c(CN4Cc5ncc(Br)cc5C4=O)c(F)c3)ccc(C(C)(C)O)c2n1 [Compound 173, 3-bromo-6-(2,6-difluoro-4-(7-(2-hydroxypropan-2-yl)-2-methyl-2H-indazol-4-yl)benzyl)-6,7-dihydro-5H-pyrrolo[3,4-b]pyridin-5-one]
22 | – | – | inactive | – | – | inactive | CC(C)(O)c1cc(F)c(-c2cc(F)c(CN3Cc4ncccc4C3=O)c(F)c2)cc1F [Compound 48, 6-((2′,3,5,5′-tetrafluoro-4′-(2-hydroxypropan-2-yl)-[1,1′-biphenyl]-4-yl)methyl)-6,7-dihydro-5H-pyrrolo[3,4-b]pyridin-5-one]
